Assay results published in patent US20230271928A1, “NAPHTHYLUREA COMPOUND, METHODS OF PREPARATION AND USE THEREOF” (Henan Radiomedical Science and Technology Co., Ltd., priority 2021, published 2023).
pIC50: −log10 of the molar value.

Assays:
Format in all cases: cell-based
SMMC-7721 cells = experiment: MTT proliferation assay, SMMC-7721; settings: Homo sapiens; SMMC-7721, MTT, 48 h
Description: (§1) Difference cell lines HepG2, SMMC-7721, HuH-7, MCF-7, MDA-MB-231, MDA-MB-468, PC9, PC9-AR, PC9-GR, Jurkat and Molt-13 were harvested during log phase; the number of the cells in an original cell suspension was counted; the original cell suspension was diluted to a density of 5×10^4 cells/mL; for a 96-well plate, 100 uL of the cell suspension was transferred to each well; DMSO is used as solvent for negative control; (2E)-3-(6-bromo-2-pyridyl)-2-cyano-N-[(1S)-1-phenylethyl]-2-acrylamide (WP1066CAS: 857064-38-1, with a formula
(§2) or gefitinib was used as a positive control; the naphthylurea compound ID1120B-1 and the phosphate ID1120B-P thereof were diluted with DMSO and added into the 96-well plate to achieve a final concentration of 0.1, 0.3, 1, 3, 10, 30, 100 and 300 μmol/L in each well; the 96-well plate was incubated for 48 h; 10 μL of MTT solvent (5 mg/mL) was added into each well; the 96-well plate was incubated at 37° C. for 4 h; a culture supernatant was discarded; 150 μL of DMSO was added into each well; the 96-well plate was shaken for 10 min on a plate shaker; an optical density (OD) of the resulting product was measured at a wavelength of 490 nm by an ELISA reader. Test results were recorded. A cell growth curve was drawn with the dosage of each compound as abscissa and the absorbance value as ordinate. The half maximum inhibition rates (IC50 value) of the cancer cells were shown in Table 1, FIGS. 1A-1J and FIGS. 2A-2J.

Jurkat cells = experiment: MTT proliferation assay, Jurkat; settings: 48 h
Description: as §1, §2

MDA-MB-231 cells = experiment: MTT proliferation assay, MDA-MB-231; settings: Homo sapiens; MDA-MB-231, MTT, 48 h
Description: (§3) Test results were recorded. A cell growth curve was drawn with the dosage of each compound as abscissa and the absorbance value as ordinate.

PC9GR cells = experiment: MTT proliferation assay, PC9GR; settings: 48 h
Description: as §3

HuH-7 cells = experiment: MTT proliferation assay, HuH-7; settings: Homo sapiens; HuH-7, MTT, 48 h
Description: as §1, §2

HepG2 cells [1] = experiment: MTT proliferation assay, HepG2
Description: as §1, §2

MOLT-13 cells = experiment: MTT proliferation assay, MOLT-13; settings: MOLT-13, MTT
Description: as §1, §2

MDA-MB-468 cells = experiment: MTT proliferation assay, MDA-MB-468; settings: Homo sapiens, MDA-MB-468, 48 h, MDA-MB-468, MTT
Description: as §3

PC9AR cells = experiment: MTT proliferation assay, PC9AR; settings: 48 h
Description: as §3

HepG2 cells [2] = experiment: Cell cycle analysis by PI flow cytometry; settings: HepG2, 48 h; for induction of cells in the G2/M phase / percentage of cells in the G1/S phase: compared with negative control (DMSO); for length of the G2 phase, % of the cell cycle, after treatment: value reached after treatment (increase from DMSO control value)
Description: HepG2 cells were harvested during log phase, digested, centrifuged and prepared into a single cell suspension; the number of the cells in the single cell suspension was counted; the cells were seeded into a 12-well plate, with 2×10^5 cells per well; three wells were used as a parallel control design; 16 hours after seeding, the cells were treated with the compounds in a concentration gradient for 48 h; the cells were digested with trypsin and resuspended; the number of the cells in the cell suspension was counted and diluted to 5×10^5 cells/mL; after the digestion was completed, the cell suspension was centrifuged; the supernatant was discarded; the pellet was washed twice with PBS (each time the mixture was centrifuged 2000 rpm for 5 min); the supernatant was discarded; a fixative comprising 980 μL of 70% cold ethanol and 20 μL of 5% BSA (a small amount of BSA reduces cellular stress and damage) was added to each microcentrifuge tube, so that the cells were fixed overnight at 4° C.; the fixative is discarded; the cells were washed three times in PBS to remove residual fixative (each time the mixture was centrifuged at 1000 rpm for 3 min); a DNA quantification kit is used to measure the content of DNA according to the following instruction (Suo Laibao, Beijing): each sample was incubated in 100 μL of RNase A at 37° C. for 30 min; 500 μL of PI (propidium iodide) was added to each sample; each sample was incubated at room temperature for 30 min in the dark; the cell cycle was analyzed by a flow cytometry and a ModFit software; and Graphpad prism 6.0 was used to estimate the percentage of a cell population in the different phases of the cell cycle.

PC9 cells = experiment: MTT proliferation assay, PC9; settings: Homo sapiens, PC-9, 48 h
Description: as §3

MCF-7 cells = experiment: MTT proliferation assay, MCF-7; settings: Homo sapiens, MCF7; MCF-7, MTT, 48 h; read-out: IC50
Description: as §3

HepG2 liver cancer cells = experiment: Annexin V-FITC/PI apoptosis flow cytometry; settings: HepG2, 48 h; for induction of apoptosis: compared with the control group
Description: The HepG2 cells were harvested during log phase, digested, centrifuged and prepared into a single cell suspension; the number of the cells in the cell suspension was counted; the cells were seeded into a 12-well plate, with 2×10^5 cells per well; three wells were used as a parallel control design; 16 hours after seeding, the cells were treated with the compounds in a concentration gradient for 48 h; the cells were digested with EDTA-free trypsin and resuspended; the number of the cells in the cell suspension was counted and diluted to 1×10^6 cells/mL; an annexin V apoptosis detection kit was used according to the following instruction (Suo Laibao, Beijing): the cells were washed twice with 1×PBS (each time the mixture was centrifuged at 6000 rpm for 0.5 min), washed once with 1×Binding buffer (and the mixture was centrifuged at 6000 rpm for 0.5 min); the supernatant was discarded; the cells were resuspended with 300 μL of 1×Binding buffer; 5 μL of Annexin V-FITC was added into each tube, and incubated in the dark for 10 min; 5 μL of PI was added into each tube and incubated in the dark for 5 min; and each tube was then inspected on a machine in the dark.

[3] = tested on: Cyclin B1 (gene name: CCNB1); experiment: qPCR of mRNA expression, CCNB1; settings: HepG2, 10 μM, 24 h, normalised to β-actin
Description: (§4) HepG2 liver cancer cells were seeded in a 6-well plate, with 1×10^6 cells per well, and treated with the compound IY1214B-2 (in 0 and 10 μM concentrations) for 24 h; total RNA was extracted from the HepG2 liver cancer cells by a single-step TRIzol method; the concentration and purity of the total RNA was measured; the total RNA was used as a template; and complementary DNA (cDNA) was synthesized from the RNA template according to the instruction of a reverse transcription kit (Promega); sqRT-PCR and qPCR were used to quantify the expression of the genes CCNB1, CDK1 and SQSTM; and the gene ACTB was used as an internal reference gene for gene expression normalization.
(§5) A 20 μL reaction mix for qPCR contained:
(§6) Cycling conditions comprised:
(§7) After 40 cycles, the cycle threaded (CT) value of the β-actin gene was used as an initial value in comparison with the amount of the amplified product.

CDC2 (gene name: CDK1) = experiment: qPCR of mRNA expression, CDK1; settings: HepG2, 10 μM, 24 h, normalised to β-actin
Description: as §4, §5, §6, §7

p62 (gene name: SQSTM) = experiment: qPCR of mRNA expression, SQSTM; settings: HepG2, 10 μM, 24 h, normalised to β-actin
Description: as §4, §5, §6, §7

[4] = concentration of 8 μL (so in the source)

Structure (SMILES)	pIC50 (SMMC-7721 cells)	pIC50 (Jurkat cells; Homo sapiens)	pIC50 (MDA-MB-231 cells)	pIC50 (PC9GR cells)	pIC50 (HuH-7 cells)	pIC50 (MOLT-13 cells; Homo sapiens, MOLT-13, 48 h)	pIC50 (MDA-MB-468 cells)	pIC50 (PC9AR cells)	pIC50 (PC9 cells)	pIC50 (HepG2 cells [1]; Homo sapiens, HepG2, 48 h)	pIC50 (MCF-7 cells)	induction of cells in the G2/M phase (HepG2 cells [2])	percentage of cells in the G1/S phase (HepG2 cells [2])	induction of apoptosis (HepG2 liver cancer cells)	length of the G2 phase, % of the cell cycle, after treatment (HepG2 cells [2])	further results
O=C(NCc1ccccc1)Nc1ccc(OCc2ccc(OCCN3CCCCC3)cc2)c2ccccc12 [ID1120B-1, 1-benzyl-3-(4-((4-(2-(piperidin-1-yl)ethoxy)benzyl)oxy)naphthalen-1-yl)urea]	5.45	5.49	4.76	4.49	5.50	4.97	5.31	5.10	4.85			dramatically induce the liver cancer cells in the G2/M phase in a dose-dependent manner	significantly decrease the percentage of the liver cancer cells in the G1/S phase			pIC50 (HepG2 cells [1]; 48 h): 5.78
O=C(NCc1ccccc1)Nc1ccc(OCc2ccc(OCCN3CCCCC3)cc2)c2ccccc12 [ID1120B-P, 1-benzyl-3-(4-((4-(2-(piperidin-1-yl)ethoxy)benzyl)oxy)naphthalen-1-yl)urea phosphate]										5.63						pIC50 (Jurkat cells; phosphate): 5.32; pIC50 (MOLT-13 cells; 48 h, phosphate): 5.01
O=C(Nc1ccc(OC(F)(F)F)cc1)Nc1ccc(OCc2ccc(OCCN3CCCCC3)cc2)c2ccccc12 [IY1214B-2]	4.50				4.64		5.41			5.41		dramatically induce the liver cancer cells in the G2/M phase in a dose-dependent manner	significantly decrease the percentage of the liver cancer cells in the G1/S phase	induce apoptosis in the HepG2 liver cancer cells in a dose-dependent manner	21.71%	apoptosis rate (HepG2 liver cancer cells; [4]): 47.1%; apoptosis rate, times higher than that of untreated wells (HepG2 liver cancer cells; [4]): 3.3 times; CCNB1 mRNA level down-regulated by [3]: 20-25%; CDK1 mRNA level down-regulated by (CDC2 (gene name: CDK1)): 20-25%; SQSTM (p62) expression level up-regulated by (p62 (gene name: SQSTM)): 2.5 times

The remaining molecules from weak to strong by pIC50 (SMMC-7721 cells), led by results:

pIC50 (SMMC-7721 cells)	pIC50 (Jurkat cells; Homo sapiens)	pIC50 (MDA-MB-231 cells)	pIC50 (PC9GR cells)	pIC50 (HuH-7 cells)	pIC50 (MOLT-13 cells; Homo sapiens, MOLT-13, 48 h)	pIC50 (MDA-MB-468 cells)	pIC50 (PC9AR cells)	pIC50 (PC9 cells)	pIC50 (HepG2 cells [1]; Homo sapiens, HepG2, 48 h)	pIC50 (MCF-7 cells)	Structure (SMILES)	induction of cells in the G2/M phase (HepG2 cells [2])	percentage of cells in the G1/S phase (HepG2 cells [2])	induction of apoptosis (HepG2 liver cancer cells)	length of the G2 phase, % of the cell cycle, after treatment (HepG2 cells [2])	further results
4.93	5.00	4.99	4.83	5.09	4.77	4.88	5.07	5.03	5.04	4.74	C[C@H](NC(=O)/C(C#N)=C/c1cccc(Br)n1)c1ccccc1 [WP1066, (2E)-3-(6-bromo-2-pyridyl)-2-cyano-N-[(1S)-1-phenylethyl]-2-acrylamide, reference compound]					
5.45		5.68		5.56					5.73	5.45	COc1ccc(NC(=O)Nc2ccc(OCc3ccc(OCCN4CCCCC4)cc3)c3ccccc23)cc1 [IY1214A-1]	dramatically induce the liver cancer cells in the G2/M phase in a dose-dependent manner	significantly decrease the percentage of the liver cancer cells in the G1/S phase	induce apoptosis in the HepG2 liver cancer cells in a dose-dependent manner	34.54%	apoptosis rate (HepG2 liver cancer cells; 4 μM): 57.7%; apoptosis rate, times higher than that of untreated wells (HepG2 liver cancer cells; 4 μM and 8 μM): more than 2 times; apoptosis rate (HepG2 liver cancer cells; 8 μM): 63%
